{"source": "paper PMC9402538", "about": "“Rational design of a sensitivity-enhanced tracer for discovering efficient APC–Asef inhibitors” (Nature Communications, 2022)", "test_system": "SW480 cells", "assay": "xCELLigence RTCA-DP migration assay, SW480", "type": "cell-based", "settings": "for Cell index: 50 μM", "procedure": "Real-time cell migration was evaluated using the xCELLigence RTCA-DP system (Roche). Briefly, SW480 cells were serum-starved for 8 h, digested, and resuspended in serum-free medium. The wells in the upper chamber of CIM plate 16 were preequilibrated with 30 μL serum-free medium for 1 h and filled with 100 μL of 4 × 10^4 serum-starved SW480 cells per well. The wells in the lower chamber of CIM plate 16 were filled with complete medium. […] Cell index values were detected every 15 min throughout the procedure, and the data were collected and analyzed with RTCA software (version 2.3).", "note": "Values joined by “and” are separate entries in the source; they are usually repeats but may differ in a detail not shown here. Equal entries are not always repeated. “Also recorded” adds a separate entry of the source. Where a SMILES comes first, the peptide text is derived from it. The star is where a group is joined. Benzoyl(4-OMe) = COc1ccc(C(=O)*)cc1", "data": [{"smiles": "COc1ccc(C(=O)N[C@@H](C)C(=O)NCC(=O)N[C@@H](CCC(=O)O)C(=O)N[C@@H](CO)C(=O)N[C@@H](CC(C)C)C(=O)N[C@@H](Cc2ccc(O)cc2)C(=O)N[C@@H](CCC(=O)O)C(N)=O)cc1", "note": "[MAI-516] ({Benzoyl(4-OMe)}-AGESLYE-NH2)", "values": [{"measurement": "Cell index", "setting": "Time 2.86 h", "value": "0.0858 and 0.0963 and 0.0628 and 0.0638"}, {"measurement": "Cell index", "setting": "Time 3.11 h", "value": "0.0938 and 0.1001 and 0.0718 and 0.0644"}, {"measurement": "Cell index", "setting": "Time 25.38 h", "value": "0.4156 and 0.4495 and 0.4015 and 0.3302"}, {"measurement": "Cell index", "setting": "Time 25.63 h", "value": "0.4241 and 0.453 and 0.4081 and 0.333"}, {"measurement": "Cell index", "setting": "Time 25.88 h", "value": "0.4262 and 0.4606 and 0.4096 and 0.3376"}, {"measurement": "Cell index", "setting": "Time 26.13 h", "value": "0.4312 and 0.4671 and 0.4174 and 0.3414"}, {"measurement": "Cell index", "setting": "Time 26.38 h", "value": "0.4401 and 0.4711 and 0.4224 and 0.35"}, {"measurement": "Cell index", "setting": "Time 26.63 h", "value": "0.4427 and 0.4808 and 0.4256 and 0.3526"}, {"measurement": "Cell index", "setting": "Time 26.88 h", "value": "0.4494 and 0.4864 and 0.4295 and 0.3559"}, {"measurement": "Cell index", "setting": "Time 27.13 h", "value": "0.4537 and 0.4902 and 0.438 and 0.3614"}, {"measurement": "Cell index", "setting": "Time 27.38 h", "value": "0.4561 and 0.4966 and 0.4408 and 0.3637"}, {"measurement": "Cell index", "setting": "Time 27.63 h", "value": "0.459 and 0.5021 and 0.4433 and 0.3665"}, {"measurement": "Cell index", "setting": "Time 27.88 h", "value": "0.4663 and 0.508 and 0.4508 and 0.3739"}, {"measurement": "Cell index", "setting": "Time 28.13 h", "value": "0.4709 and 0.5146 and 0.4572 and 0.3773"}, {"measurement": "Cell index", "setting": "Time 28.38 h", "value": "0.4763 and 0.5221 and 0.4622 and 0.3808"}, {"measurement": "Cell index", "setting": "Time 28.63 h", "value": "0.4818 and 0.5253 and 0.4661 and 0.3892"}, {"measurement": "Cell index", "setting": "Time 28.88 h", "value": "0.484 and 0.5373 and 0.4696 and 0.3897"}, {"measurement": "Cell index", "setting": "Time 29.13 h", "value": "0.4908 and 0.5435 and 0.4752 and 0.3937"}, {"measurement": "Cell index", "setting": "Time 29.38 h", "value": "0.4994 and 0.5497 and 0.4817 and 0.3996"}, {"measurement": "Cell index", "setting": "Time 29.63 h", "value": "0.5038 and 0.5558 and 0.4857 and 0.4052"}, {"measurement": "Cell index", "setting": "Time 29.88 h", "value": "0.5108 and 0.5614 and 0.4912 and 0.4104"}, {"measurement": "Cell index", "setting": "Time 30.13 h", "value": "0.5142 and 0.5705 and 0.496 and 0.4144"}, {"measurement": "Cell index", "setting": "Time 30.38 h", "value": "0.5237 and 0.5775 and 0.5022 and 0.4227"}, {"measurement": "Cell index", "setting": "Time 30.63 h", "value": "0.5252 and 0.5853 and 0.505 and 0.4265"}, {"measurement": "Cell index", "setting": "Time 30.88 h", "value": "0.5376 and 0.5896 and 0.5138 and 0.4332"}, {"measurement": "cell migration (RTCA)", "setting": "SW480, MAI-516", "value": "dose not inhibit the migration; also recorded: no apparent impact"}]}]}
